Measurements published in the supplement of paper PMC10307832.

What was measured:
Test in all cases: relative viability (nuclei count vs DMSO), 5 days (fraction); higher = more cells survive
Shikonin + AZD7762 = compound: CC(C)=CC[C@@H](O)C1=CC(=O)c2c(O)ccc(O)c2C1=O [Shikonin] + NC(=O)Nc1cc(-c2cccc(F)c2)sc1C(=O)N[C@H]1CCCNC1 [AZD7762] (partner 0.2 µM)
In short: (§1)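 Lung cancer cell lines in 1536-well plates got either a single drug or a fixed anchor-drug dose together with five library-drug doses (not always all listed) in √10 steps, by pin tool, on the day after seeding. Nuclei were counted after 5 days, and relative viability is the treated-to-vehicle ratio of nuclei counts. Values are medians of duplicate plates.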

Shikonin + Vorinostat = compound: CC(C)=CC[C@@H](O)C1=CC(=O)c2c(O)ccc(O)c2C1=O [Shikonin] + O=C(CCCCCCC(=O)Nc1ccccc1)NO [Vorinostat] (partner 1 µM)
In short: as §1

[1] = compound: CC(C)N(CCCNC(=O)Nc1ccc(C(C)(C)C)cc1)C[C@H]1O[C@@H](n2ccc3c(N)ncnc32)[C@H](O)[C@@H]1O + COc1cc2c(Oc3ccc(NC(=O)C4(C(=O)Nc5ccc(F)cc5)CC4)cc3F)ccnc2cc1OCCCN1CCOCC1 [Foretinib] (partner 0.25 µM)
In short: as §1

[2] = compound: CC(C)N(CCCNC(=O)Nc1ccc(C(C)(C)C)cc1)C[C@H]1O[C@@H](n2ccc3c(N)ncnc32)[C@H](O)[C@@H]1O + C[C@@H](Oc1cc(-c2cnn(C3CCNCC3)c2)cnc1N)c1c(Cl)ccc(F)c1Cl [Crizotinib] (partner 1 µM)
In short: as §1

| Cell Line | relative viability (Shikonin + AZD7762; first compound 0.01 µM) | relative viability (Shikonin + AZD7762; first compound 0.3162 µM) | relative viability (Shikonin + AZD7762; first compound 1 µM) | relative viability (Shikonin + Vorinostat; first compound 0.01 µM) | relative viability (Shikonin + Vorinostat; first compound 0.3162 µM) | relative viability (Shikonin + Vorinostat; first compound 1 µM) | relative viability (Shikonin + Vorinostat; first compound 0.1 µM) | relative viability ([1]; first compound 0.08 µM) | relative viability ([1]; first compound 0.253 µM) | relative viability ([1]; first compound 2.53 µM) | relative viability ([1]; first compound 8 µM) | relative viability ([2]; first compound 0.08 µM) | relative viability ([2]; first compound 0.253 µM) | relative viability ([2]; first compound 2.53 µM) | relative viability ([2]; first compound 8 µM) | relative viability (Shikonin + AZD7762; first compound 0.1 µM) | relative viability ([2]; first compound 0.8 µM) | relative viability ([1]; first compound 0.8 µM) |
| --- | --- | --- | --- | --- | --- | --- | --- | --- | --- | --- | --- | --- | --- | --- | --- | --- | --- | --- |
| NCI-H1648 | 0.829 | 0.825 | 0.457 | 0.351 | 0.672 | 0.509 |  |  |  |  |  |  |  |  |  |  |  |  |
| NCI-H1650 |  |  |  | 0.41 | 0.485 | 0.483 | 0.499 | 1.12 | 0.939 | 1.32 | 0.987 | 0.925 | 1.05 | 1.06 | 0.986 |  |  |  |
| NCI-H1703 |  | 0.124 | 0.113 |  |  |  |  | 0.294 | 0.33 | 0.403 | 0.401 | 0.635 | 0.61 | 0.647 | 0.491 | 0.125 | 0.685 |  |
| NCI-H1792 | 0.663 | 0.604 | 0.694 |  |  |  |  |  |  |  |  | 0.975 | 0.919 | 0.915 | 1.03 | 0.618 | 1.01 |  |
| NCI-H1793 | 0.555 | 0.494 | 0.629 | 0.752 | 0.68 | 0.973 | 0.974 | 0.709 |  | 0.606 | 0.621 |  |  |  |  | 0.531 |  | 0.677 |
| NCI-H2009 |  |  |  | 0.918 | 0.789 | 0.649 | 0.737 | 1.26 | 1.19 | 1.24 | 1.19 | 1.03 | 0.971 | 0.999 | 1.08 |  | 1.08 | 1.23 |
| NCI-H2023 |  |  |  | 0.645 | 0.703 | 0.736 | 0.772 | 0.811 | 0.958 | 1.03 | 0.773 | 0.753 | 0.733 | 0.755 | 0.751 |  | 0.859 | 1.02 |
| NCI-H2228 |  |  |  | 0.807 | 0.53 | 0.785 | 0.507 | 0.865 | 0.895 | 0.976 | 0.905 | 0.586 |  | 0.543 | 0.44 |  | 0.468 | 0.931 |
| NCI-H2342 | 0.503 | 0.471 | 0.472 | 0.872 | 0.78 | 0.764 | 0.722 | 0.931 | 0.9 | 1.21 | 1 |  |  |  |  | 0.451 |  | 0.9 |
| SK-LU-1 |  |  |  | 0.844 | 0.853 | 0.704 | 0.878 | 0.904 | 0.919 | 0.911 | 0.754 | 1.03 | 0.931 | 1.08 | 0.875 |  | 0.969 | 0.898 |
| SK-MES-1 |  |  |  | 1.13 | 1.12 | 1.26 | 1.33 | 0.792 | 0.848 | 1 | 0.804 | 0.991 | 1.05 | 0.997 | 0.956 |  | 1.01 | 0.881 |
| SW 900 | 0.769 | 0.262 | 0.542 | 0.357 | 0.377 | 0.576 | 0.458 | 0.737 | 0.893 | 1.09 | 0.952 |  |  |  |  | 0.634 |  |  |
| SW 1573 |  |  |  | 0.739 | 0.536 | 0.306 | 0.94 | 0.81 | 0.707 | 0.927 | 1.08 | 0.749 | 0.894 | 0.846 | 0.695 |  | 0.825 | 0.825 |
